Data: patent publication EP0491813B1, “BIODEGRADABLE CONTROLLED RELEASE MATRICES” (priority 1989, dated 1991)

Assay: dermal toxicity test with moistened product (US EPA guidelines), samples secured to skin for 24 hours
Settings: rabbit, in vivo, topical or ocular, male rabbits, 24 hours exposure, survivors observed for 14 days, read-out: LD50 DOSAGE
Procedure: Dermal toxicity tests using this formulation, a conventional synthetic polymer formulation comprising 10% w/w phorate and pure phorate (10% w/w) were performed on male rabbits by securing samples to the skin of the test animals for a period of 24 hours. At the expiry of this period rabbits were examined for mortality and surviving rabbits observed for 14 days before sacrifice and examination. The LD50 values are shown below in table 3.

CCOP(=S)(OCC)SCSCC [Technical grade phorate (10% w/w), phorate]
LD50: 5.2 mg/kg
